The values that follow are results of earlier work, collected in patent US8574562B2, “Microemulsion pharmaceutical composition comprising a macrolide immunosuppressant drug” (Novaliq GmbH, priority 2009, dated 2013).

Each structure is given as a SMILES string.

The conditions of data set [1]: methanol, ethanol, acetone, chloroform, ethyl acetate, diethyl ether.
For data set [2] the following is noted: relative to ciclosporin.
For data set [3] the following is noted: relative to ciclosporin. The source holds these as a separate data set.

With `C=CC[C@@H]1/C=C(\C)C[C@H](C)C[C@H](OC)[C@H]2O[C@@](O)(C(=O)C(=O)N3CCCC[C@H]3C(=O)O[C@H](/C(C)=C/[C@@H]3CC[C@@H](O)[C@H](OC)C3)[C@H](C)[C@@H](O)CC1=O)[C@H](C)C[C@@H]2OC` [Tacrolimus], the “solubility in organic solvents” value in data set [1] was “soluble”. The “immunosuppressive activity in vitro, higher than that of ciclosporin” value in data set [2] is 50-100 times. For the same compound, the “immunosuppressive activity in vivo, higher than that of ciclosporin” value in data set [3] was 10-20 times.
